Measured values reported in PubChem BioAssay AID328 (DTP/NCI, 2004).
“And” between values parts separate entries of the source, which are not always exact repeats. Equal entries are not always repeated. Toxic doses and inconclusive results are not listed. How the source made its calls: active means survival T/C of 150% or more; inactive means T/C below 125% in these data.

Tested on: BDF1 mice, P388 leukemia ip, median survival T/C
Assay: NCI In Vivo Anticancer Drug Screen. Data for tumor model P388 Leukemia (intraperitoneal) in B6D2F1 (BDF1) mice
Details: endpoint: median survival time, higher = longer survival
Summary of the method: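 Steps: implant the tumour, treat one group with compound and another with vehicle, record survival, then divide treated by control.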

[1] = dose: 50.0 mg/kg/injection, schedule: Q04DX003 (ip), vehicle: saline
[2] = dose: 100.0 mg/kg/injection, schedule: Q04DX003 (ip), vehicle: saline sonified
[3] = dose: 200.0 mg/kg/injection, schedule: Q04DX003 (ip), vehicle: saline sonified
[4] = dose: 25.0 mg/kg/injection, schedule: Q01DX009 (ip), vehicle: saline with Tween-80
[5] = dose: 100.0 mg/kg/injection, schedule: Q01DX009 (ip), vehicle: saline with Tween-80
[6] = dose: 200.0 mg/kg/injection, schedule: Q01DX009 (ip), vehicle: saline with Tween-80
[7] = dose: 100.0 mg/kg/injection, schedule: Q04DX003 (ip), vehicle: saline
[8] = dose: 50.0 mg/kg/injection, schedule: Q01DX009 (ip), vehicle: saline with Tween-80
[9] = dose: 100.0 mg/kg/injection, schedule: Q04DX003 (ip), vehicle: saline with Tween-80
[10] = dose: 200.0 mg/kg/injection, schedule: Q04DX003 (ip), vehicle: saline with Tween-80

Measured: T/C

Nc1nc(=S)c2ncn(C3OC(CO)C(O)C3O)c2[nH]1 (stereo not given)
inactive: dose: 1.0 mg/kg/injection, schedule: Q01DX010 (ip), vehicle: saline 118 % of control | dose: 2.0 mg/kg/injection, schedule: Q01DX010 (ip), vehicle: saline 118 % of control | dose: 4.0 mg/kg/injection, schedule: Q01DX010 (ip), vehicle: saline 100 % of control and 109 % of control | dose: 8.0 mg/kg/injection, schedule: Q01DX010 (ip), vehicle: saline 90 % of control and 100 % of control | [1] 118 % of control | dose: 132.0 mg/kg/injection, schedule: Q04DX003 (ip), vehicle: saline with Tween-80 122 % of control | dose: 200.0 mg/kg/injection, schedule: Q01DX009 (ip), vehicle: saline 117 % of control | dose: 300.0 mg/kg/injection, schedule: Q04DX003 (ip), vehicle: saline with Tween-80 122 % of control | dose: 400.0 mg/kg/injection, schedule: Q01DX009 (ip), vehicle: saline 111 % of control

CCC(=N\NC(=S)NCCN(C)C)/C(C)=N/NC(=S)NCCN(C)C
inactive: dose: 0.75 mg/kg/injection, schedule: Q04DX003 (ip), vehicle: saline 103 % of control | dose: 1.5 mg/kg/injection, schedule: Q04DX003 (ip), vehicle: saline 103 % of control | dose: 3.0 mg/kg/injection, schedule: Q04DX003 (ip), vehicle: saline 97 % of control

C/C(=C/B1OCCO1)CCl
inactive: [2] 105 % of control | [3] 100 % of control | dose: 400.0 mg/kg/injection, schedule: Q04DX003 (ip), vehicle: saline sonified 110 % of control

O=C(O)C1CSC(c2ccccc2)N1 (stereo not given)
inactive: [4] 111 % of control | [5] 109 % of control | [6] 100 % of control

O=NN(CCCl)C(=O)NCC1CCC(CNC(=O)N(CCCl)N=O)CC1 (stereo not given)
active: dose: 25.0 mg/kg/injection, schedule: Q01DX009 (ip), vehicle: Klucel (hydroxypropylcellulose) (HPC) 154 % of control | dose: 26.4 mg/kg/injection, schedule: Q01DX009 (ip), vehicle: other 154 % of control | dose: 40.0 mg/kg/injection, schedule: Q01DX009 (ip), vehicle: other 159 % of control | dose: 44.0 mg/kg/injection, schedule: Q01DX009 (ip), vehicle: other 227 % of control | dose: 66.0 mg/kg/injection, schedule: Q01DX009 (ip), vehicle: other 240 % of control | dose: 66.0 mg/kg/injection, schedule: Q04DX003 (ip), vehicle: saline sonified 170 % of control | dose: 100.0 mg/kg/injection, schedule: Q01DX009 (ip), vehicle: Klucel (hydroxypropylcellulose) (HPC) 169 % of control | dose: 100.0 mg/kg/injection, schedule: Q01DX009 (ip), vehicle: other 272 % of control and 300 % of control | [2] 175 % of control and 185 % of control | dose: 150.0 mg/kg/injection, schedule: Q01DX009 (ip), vehicle: other 245 % of control | dose: 150.0 mg/kg/injection, schedule: Q04DX003 (ip), vehicle: saline sonified 180 % of control | dose: 200.0 mg/kg/injection, schedule: Q01DX009 (ip), vehicle: Klucel (hydroxypropylcellulose) (HPC) 176 % of control | [3] 240 % of control
inactive: dose: 3.13 mg/kg/injection, schedule: Q01DX009 (ip), vehicle: other 113 % of control | dose: 6.25 mg/kg/injection, schedule: Q01DX009 (ip), vehicle: other 122 % of control | dose: 12.5 mg/kg/injection, schedule: Q01DX009 (ip), vehicle: other 116 % of control | dose: 50.0 mg/kg/injection, schedule: Q01DX009 (ip), vehicle: Klucel (hydroxypropylcellulose) (HPC) 115 % of control

O=S(=O)(O)C(I)(I)S(=O)(=O)O
inactive: [7] 100 % of control | dose: 200.0 mg/kg/injection, schedule: Q04DX003 (ip), vehicle: saline 95 % of control | dose: 400.0 mg/kg/injection, schedule: Q04DX003 (ip), vehicle: saline 104 % of control

CC1(C)CC(C)(OC(=O)c2ccccc2)N=N1 (stereo not given)
inactive: dose: 25.0 mg/kg/injection, schedule: Q01DX005 (ip), vehicle: other 98 % of control | dose: 50.0 mg/kg/injection, schedule: Q01DX005 (ip), vehicle: other 98 % of control | dose: 100.0 mg/kg/injection, schedule: Q01DX005 (ip), vehicle: other 99 % of control | dose: 200.0 mg/kg/injection, schedule: Q01DX005 (ip), vehicle: other 99 % of control | dose: 400.0 mg/kg/injection, schedule: Q01DX005 (ip), vehicle: other 119 % of control

CC(=O)N1c2ccccc2Sc2cc(C(O)(C(F)(F)F)C(F)(F)F)ccc21
inactive: [4] 86 % of control | [8] 90 % of control | [5] 90 % of control

CC1CN(Cc2ccccc2O)CC(C)N1 (stereo not given)
inactive: dose: 6.25 mg/kg/injection, schedule: Q04DX003 (ip), vehicle: water 103 % of control | dose: 12.5 mg/kg/injection, schedule: Q04DX003 (ip), vehicle: water 103 % of control | dose: 25.0 mg/kg/injection, schedule: Q04DX003 (ip), vehicle: water 103 % of control | dose: 50.0 mg/kg/injection, schedule: Q04DX003 (ip), vehicle: water 109 % of control | dose: 100.0 mg/kg/injection, schedule: Q04DX003 (ip), vehicle: water 97 % of control

CC(=O)O[C@]1(C(C)=O)CC[C@H]2[C@@H]3C[C@H](Cl)C4=CC(=O)CC[C@]4(C)[C@H]3CC[C@@]21C
inactive: [8] 113 % of control | [5] 109 % of control | [9] 108 % of control | [6] 100 % of control | [10] 100 % of control

C=C(Cl)CSCC
inactive: dose: 6.25 mg/kg/injection, schedule: Q04DX003 (ip), vehicle: alcohol 100 % of control | dose: 12.5 mg/kg/injection, schedule: Q01DX009 (ip), vehicle: acetone 118 % of control | dose: 12.5 mg/kg/injection, schedule: Q04DX003 (ip), vehicle: alcohol 105 % of control | dose: 25.0 mg/kg/injection, schedule: Q01DX009 (ip), vehicle: acetone 113 % of control | dose: 25.0 mg/kg/injection, schedule: Q04DX003 (ip), vehicle: alcohol 100 % of control | dose: 45.0 mg/kg/injection, schedule: Q01DX001 (ip), vehicle: saline 109 % of control | dose: 90.0 mg/kg/injection, schedule: Q01DX001 (ip), vehicle: saline 109 % of control | dose: 120.0 mg/kg/injection, schedule: Q04DX003 (ip), vehicle: saline 109 % of control | dose: 180.0 mg/kg/injection, schedule: Q04DX003 (ip), vehicle: saline 95 % of control | dose: 270.0 mg/kg/injection, schedule: Q04DX003 (ip), vehicle: saline 86 % of control

C1CC[N-]CC1.C1CC[N-]CC1.O=C(CC(=O)C(F)(F)F)C(F)(F)F.O=C(CC(=O)C(F)(F)F)C(F)(F)F.[Ni+2]
inactive: dose: 25.0 mg/kg/injection, schedule: Q04DX003 (ip), vehicle: saline 104 % of control | [1] 108 % of control | [7] 104 % of control

Cc1c(Cl)cccc1NC(=O)Oc1ccc(Cl)cc1Cl
inactive: dose: 50.0 mg/kg/injection, schedule: Q04DX003 (ip), vehicle: saline with Tween-80 109 % of control | [9] 122 % of control | [10] 113 % of control

Cc1ccc2c[n+]3cc4ccccc4cc3cc2c1
active: dose: 4.6 mg/kg/injection, schedule: Q01DX009 (ip), vehicle: saline 150 % of control
inactive: dose: 1.56 mg/kg/injection, schedule: Q01DX009 (ip), vehicle: saline 113 % of control | dose: 4.5 mg/kg/injection, schedule: Q04DX003 (ip), vehicle: saline 113 % of control | dose: 9.0 mg/kg/injection, schedule: Q04DX003 (ip), vehicle: saline 86 % of control

CC(C)[C@]12O[C@H]1[C@@H]1O[C@]13[C@]1(O[C@H]1C[C@H]1C4=C(C(=O)OC4)[C@@H](O)C[C@@]13C)[C@@H]2O
active: dose: 0.25 mg/kg/injection, schedule: Q01DX009 (ip), vehicle: saline + alcohol 150 % of control
inactive: dose: 0.03 mg/kg/injection, schedule: Q01DX009 (ip), vehicle: saline + alcohol 100 % of control and 106 % of control | dose: 0.06 mg/kg/injection, schedule: Q01DX009 (ip), vehicle: saline + alcohol 113 % of control and 117 % of control | dose: 0.13 mg/kg/injection, schedule: Q01DX009 (ip), vehicle: saline + alcohol 120 % of control | dose: 3.8 micrograms/kg/injection, schedule: Q01DX009 (ip), vehicle: saline 104 % of control | dose: 6.5 micrograms/kg/injection, schedule: Q01DX009 (ip), vehicle: saline 104 % of control | dose: 13.0 micrograms/kg/injection, schedule: Q01DX009 (ip), vehicle: saline 95 % of control | dose: 25.0 micrograms/kg/injection, schedule: Q01DX009 (ip), vehicle: saline 109 % of control | dose: 100.0 micrograms/kg/injection, schedule: Q01DX009 (ip), vehicle: saline + alcohol 90 % of control
